Experimental data as given in article PMC12209991 (Clinical Pharmacology in Drug Development, 2025).
Where two headings read alike, the source gives them in different places.

Legend:
[1] = Single ascending dose (SAD) pharmacokinetics in healthy volunteers; type: in vivo, human; conditions: for AUC(0-inf) / Cmax / Tmax: human, plasma, po
Description: (§1) Analytes were separated by HPLC on a Waters Atlantis T3 analytical column using a gradient mobile phase (mobile phase A: 10% acetonitrile, 90% water, 10 mM ammonium acetate, 0.3% formic acid; mobile phase B: 90% acetonitrile, 10% water, 10 mM ammonium acetate, 0.3% formic acid) run at 0.4 mL/min with initial mobile phase B concentration of 30%.

[2] = Multiple ascending dose (MAD) pharmacokinetics in healthy volunteers, BID for 14 days; type: in vivo, human; conditions: for AUC / Cmax / Tmax / half-life: human, plasma, oral; for Tmax: read-out: Tmax, median [min-max]
Description: as §1

With CC(=O)N1CCC(COc2cc(F)c3c(=O)[nH]c(CSC4CCOCC4)nc3c2)CC1 [RBN‐3143] the “RBN-3143 dose excreted in urine unchanged” value ([1]; SAD and MAD cohorts, pooled urine) was “Approximately 16%”, the AUC(0-inf) ([1]; 25 mg, single oral dose 25 mg, read-out: AUCinf, geometric mean (Geo CV%)) was 734 ng·h/mL and the AUC(0-inf) ([1]; 25 mg, single oral dose 25 mg, read-out: AUCinf, mean (SD)) was 752 ng·h/mL. The Cmax ([1]; 25 mg, single oral dose 25 mg, read-out: Cmax, geometric mean (Geo CV%)) was 134 ng/mL, the Cmax ([1]; 25 mg, single oral dose 25 mg, read-out: Cmax, mean (SD)) was 138 ng/mL and the Tmax ([1]; 25 mg, single oral dose 25 mg, read-out: Tmax, median [min-max]) was 2 h. For the same molecule, the AUC(0-inf) ([1]; 50 mg, single oral dose 50 mg, read-out: AUCinf, geometric mean (Geo CV%)) was 1540 ng·h/mL, the AUC(0-inf) ([1]; 50 mg, single oral dose 50 mg, read-out: AUCinf, mean (SD)) was 1560 ng·h/mL and the Cmax ([1]; 50 mg, single oral dose 50 mg, read-out: Cmax, geometric mean (Geo CV%)) was 259 ng/mL. The Cmax ([1]; 50 mg, single oral dose 50 mg, read-out: Cmax, mean (SD)) was 269 ng/mL, the Tmax ([1]; 50 mg, single oral dose 50 mg, read-out: Tmax, median [min-max]) was 2 h and the AUC(0-inf) ([1]; 100 mg, single oral dose 100 mg, read-out: AUCinf, geometric mean (Geo CV%)) was 3540 ng·h/mL. It also gave an AUC(0-inf) ([1]; 100 mg, single oral dose 100 mg, read-out: AUCinf, mean (SD)) of 3610 ng·h/mL, a Cmax ([1]; 100 mg, single oral dose 100 mg, read-out: Cmax, geometric mean (Geo CV%)) of 544 ng/mL and a Cmax ([1]; 100 mg, single oral dose 100 mg, read-out: Cmax, mean (SD)) of 556 ng/mL. It also gave a Tmax ([1]; 100 mg, single oral dose 100 mg, read-out: Tmax, median [min-max]) of 1.75 h, an AUC(0-inf) ([1]; 150 mg, single oral dose 150 mg, read-out: AUCinf, geometric mean (Geo CV%)) of 5000 ng·h/mL and an AUC(0-inf) ([1]; 150 mg, single oral dose 150 mg, read-out: AUCinf, mean (SD)) of 5050 ng·h/mL. The Cmax ([1]; 150 mg, single oral dose 150 mg, read-out: Cmax, geometric mean (Geo CV%)) was 653 ng/mL, the Cmax ([1]; 150 mg, single oral dose 150 mg, read-out: Cmax, mean (SD)) was 668 ng/mL and the Tmax ([1]; 150 mg, single oral dose 150 mg, read-out: Tmax, median [min-max]) was 2 h. For the same molecule, the AUC(0-inf) ([1]; 300 mg, single oral dose 300 mg, read-out: AUCinf, geometric mean (Geo CV%)) was 6230 ng·h/mL, the AUC(0-inf) ([1]; 300 mg, single oral dose 300 mg, read-out: AUCinf, mean (SD)) was 6440 ng·h/mL and the Cmax ([1]; 300 mg, single oral dose 300 mg, read-out: Cmax, geometric mean (Geo CV%)) was 747 ng/mL. It also gave a Cmax ([1]; 300 mg, single oral dose 300 mg, read-out: Cmax, mean (SD)) of 771 ng/mL, a Tmax ([1]; 300 mg, single oral dose 300 mg, read-out: Tmax, median [min-max]) of 2 h and an AUC(0-inf) ([1]; 600 mg, single oral dose 600 mg, read-out: AUCinf, geometric mean (Geo CV%)) of 11700 ng·h/mL. The AUC(0-inf) ([1]; 600 mg, single oral dose 600 mg, read-out: AUCinf, mean (SD)) was 11900 ng·h/mL, the Cmax ([1]; 600 mg, single oral dose 600 mg, read-out: Cmax, geometric mean (Geo CV%)) was 1200 ng/mL and the Cmax ([1]; 600 mg, single oral dose 600 mg, read-out: Cmax, mean (SD)) was 1240 ng/mL. It also gave a Tmax ([1]; 600 mg, single oral dose 600 mg, read-out: Tmax, median [min-max]) of 1.75 h, an AUC(0-inf) ([1]; 1000 mg, single oral dose 1000 mg, read-out: AUCinf, geometric mean (Geo CV%)) of 16500 ng·h/mL and an AUC(0-inf) ([1]; 1000 mg, single oral dose 1000 mg, read-out: AUCinf, mean (SD)) of 17700 ng·h/mL. The Cmax ([1]; 1000 mg, single oral dose 1000 mg, read-out: Cmax, geometric mean (Geo CV%)) was 1460 ng/mL, the Cmax ([1]; 1000 mg, single oral dose 1000 mg, read-out: Cmax, mean (SD)) was 1500 ng/mL and the Tmax ([1]; 1000 mg, single oral dose 1000 mg, read-out: Tmax, median [min-max]) was 2.02 h. For the same molecule, the Tmax ([1]; SAD, oral, across doses 25-1000 mg, read-out: Tmax (time of peak concentrations)) was 2 h, the time to steady-state ([2]; BID dosing) was no more than 3 days and the AUC ([2]; 150 mg, 150 mg BID, Day 1, plasma, read-out: AUC12, geometric mean (Geo CV%)) was 3470 ng·h/mL. For the same molecule, the AUC ([2]; 150 mg, 150 mg BID, Day 1, plasma, read-out: AUC12, mean (SD)) was 3610 ng·h/mL, the Cmax ([2]; 150 mg, 150 mg BID, Day 1, plasma, read-out: Cmax, geometric mean (Geo CV%)) was 597 ng/mL and the Cmax ([2]; 150 mg, 150 mg BID, Day 1, plasma, read-out: Cmax, mean (SD)) was 623 ng/mL. It also gave a Tmax ([2]; 150 mg, 150 mg BID, Day 1, plasma) of 2.5 h, a half-life ([2]; 150 mg, 150 mg BID, Day 1, plasma, read-out: t1/2, geometric mean (Geo CV%) (converted)) of 4.13 h and a half-life ([2]; 150 mg, 150 mg BID, Day 1, plasma, read-out: t1/2, mean (SD) (converted)) of 4.52 h. The AUC ([2]; 150 mg, 150 mg BID, Day 14, plasma, read-out: AUC12, geometric mean (Geo CV%)) was 5570 ng·h/mL, the AUC ([2]; 150 mg, 150 mg BID, Day 14, plasma, read-out: AUC12, mean (SD)) was 5660 ng·h/mL and the Cmax ([2]; 150 mg, 150 mg BID, Day 14, plasma, read-out: Cmax, geometric mean (Geo CV%)) was 846 ng/mL. The Cmax ([2]; 150 mg, 150 mg BID, Day 14, plasma, read-out: Cmax, mean (SD)) was 861 ng/mL, the Tmax ([2]; 150 mg, 150 mg BID, Day 14, plasma) was 2.5 h and the AUC ([2]; 300 mg, 300 mg BID, Day 1, plasma, read-out: AUC12, geometric mean (Geo CV%)) was 5540 ng·h/mL. For the same molecule, the AUC ([2]; 300 mg, 300 mg BID, Day 1, plasma, read-out: AUC12, mean (SD)) was 5590 ng·h/mL, the Cmax ([2]; 300 mg, 300 mg BID, Day 1, plasma, read-out: Cmax, geometric mean (Geo CV%)) was 907 ng/mL and the Cmax ([2]; 300 mg, 300 mg BID, Day 1, plasma, read-out: Cmax, mean (SD)) was 925 ng/mL. The Tmax ([2]; 300 mg, 300 mg BID, Day 1, plasma) was 2.5 h, the half-life ([2]; 300 mg, 300 mg BID, Day 1, plasma, read-out: t1/2, geometric mean (Geo CV%) (converted)) was 4.15 h and the half-life ([2]; 300 mg, 300 mg BID, Day 1, plasma, read-out: t1/2, mean (SD) (converted)) was 4.19 h.
